The NIST ThermoML archive (doi:10.1021/acs.jced.7b01053)
Several values for one entry are separate records, joined by “and”; a condition that tells them apart may be missing. Equal values may be shown once. ± gives the expanded uncertainty stated by the source.

Assay: mn = molality of the nth substance listed, in mol/kg
Conditions: 293 K, 100 kPa, Liquid, Alternating current cell with electrodes

CC(=O)[O-].[NH3+]CCO [2-hydroxyethylammonium acetate] + O
electrical conductivity (m1 = 0.02015): 0.13 ± 0.008 S/m | electrical conductivity (m1 = 0.0241): 0.138 ± 0.016 S/m | electrical conductivity (m1 = 0.03983): 0.262 ± 0.02 S/m | electrical conductivity (m1 = 0.04796): 0.274 ± 0.02 S/m | electrical conductivity (m1 = 0.05774): 0.359 ± 0.027 S/m | electrical conductivity (m1 = 0.07416): 0.45 ± 0.034 S/m | electrical conductivity (m1 = 0.07452): 0.4 ± 0.029 S/m | electrical conductivity (m1 = 0.09015): 0.539 ± 0.041 S/m | electrical conductivity (m1 = 0.09982): 0.512 ± 0.038 S/m | electrical conductivity (m1 = 0.1057): 0.618 ± 0.051 S/m | electrical conductivity (m1 = 0.1213): 0.702 ± 0.057 S/m | electrical conductivity (m1 = 0.1267): 0.628 ± 0.051 S/m | electrical conductivity (m1 = 0.1356): 0.775 ± 0.068 S/m | electrical conductivity (m1 = 0.1485): 0.835 ± 0.073 S/m | electrical conductivity (m1 = 0.1519): 0.737 ± 0.063 S/m | electrical conductivity (m1 = 0.1621): 0.9 ± 0.084 S/m | electrical conductivity (m1 = 0.1743): 0.958 ± 0.089 S/m | electrical conductivity (m1 = 0.1778): 0.847 ± 0.076 S/m | electrical conductivity (m1 = 0.1867): 1.02 ± 0.1 S/m | electrical conductivity (m1 = 0.2004): 1.08 ± 0.16 S/m | electrical conductivity (m1 = 0.2025): 0.95 ± 0.15 S/m | electrical conductivity (m1 = 0.2157): 1.14 ± 0.12 S/m | electrical conductivity (m1 = 0.2285): 1.06 ± 0.1 S/m | electrical conductivity (m1 = 0.2326): 1.21 ± 0.15 S/m | electrical conductivity (m1 = 0.2502): 1.29 ± 0.14 S/m | electrical conductivity (m1 = 0.2521): 1.16 ± 0.12 S/m | electrical conductivity (m1 = 0.2691): 1.37 ± 0.15 S/m | electrical conductivity (m1 = 0.2755): 1.23 ± 0.13 S/m | electrical conductivity (m1 = 0.2868): 1.44 ± 0.17 S/m | electrical conductivity (m1 = 0.2977): 1.33 ± 0.15 S/m | electrical conductivity (m1 = 0.3032): 1.44 ± 0.17 S/m | electrical conductivity (m1 = 0.3189): 1.48 ± 0.17 S/m | electrical conductivity (m1 = 0.3199): 1.42 ± 0.16 S/m | electrical conductivity (m1 = 0.3337): 1.56 ± 0.19 S/m | electrical conductivity (m1 = 0.3404): 1.49 ± 0.17 S/m | electrical conductivity (m1 = 0.3476): 1.61 ± 0.2 S/m | electrical conductivity (m1 = 0.3609): 1.61 ± 0.2 S/m | electrical conductivity (m1 = 0.3615): 1.57 ± 0.19 S/m | electrical conductivity (m1 = 0.3811): 1.64 ± 0.21 S/m | electrical conductivity (m1 = 0.3855): 1.75 ± 0.23 S/m | electrical conductivity (m1 = 0.4003): 1.72 ± 0.22 S/m | electrical conductivity (m1 = 0.4075): 1.86 ± 0.25 S/m | electrical conductivity (m1 = 0.4184): 1.77 ± 0.23 S/m | electrical conductivity (m1 = 0.4279): 1.93 ± 0.26 S/m | electrical conductivity (m1 = 0.4359): 1.83 ± 0.24 S/m | electrical conductivity (m1 = 0.4463): 1.98 ± 0.28 S/m | electrical conductivity (m1 = 0.4526): 1.87 ± 0.25 S/m | electrical conductivity (m1 = 0.4627): 2.03 ± 0.29 S/m | electrical conductivity (m1 = 0.4642): 1.9 ± 0.26 S/m | electrical conductivity (m1 = 0.4774): 2.08 ± 0.32 S/m | electrical conductivity (m1 = 0.4797): 1.94 ± 0.29 S/m | electrical conductivity (m1 = 0.4943): 1.99 ± 0.28 S/m | electrical conductivity (m1 = 0.5085): 2.04 ± 0.29 S/m | electrical conductivity (m1 = 0.5221): 2.09 ± 0.3 S/m | electrical conductivity (m1 = 0.5351): 2.13 ± 0.31 S/m | electrical conductivity (m1 = 0.5473): 2.17 ± 0.32 S/m | electrical conductivity (m1 = 0.5594): 2.23 ± 0.34 S/m | electrical conductivity (m1 = 0.5705): 2.27 ± 0.34 S/m

CC(=O)[O-].C[NH2+]CCO [N-methyl-2-hydroxyethylammonium acetate] + O
electrical conductivity (m1 = 0.01579): 0.077 ± 0.013 S/m | electrical conductivity (m1 = 0.01797): 0.09 ± 0.013 S/m | electrical conductivity (m1 = 0.03269): 0.14 ± 0.018 S/m | electrical conductivity (m1 = 0.03539): 0.162 ± 0.019 S/m | electrical conductivity (m1 = 0.05165): 0.21 ± 0.028 S/m | electrical conductivity (m1 = 0.05369): 0.236 ± 0.029 S/m | electrical conductivity (m1 = 0.06943): 0.29 ± 0.02 S/m | electrical conductivity (m1 = 0.07132): 0.318 ± 0.022 S/m | electrical conductivity (m1 = 0.08822): 0.356 ± 0.037 S/m | electrical conductivity (m1 = 0.09023): 0.385 ± 0.039 S/m | electrical conductivity (m1 = 0.1063): 0.507 ± 0.063 S/m | electrical conductivity (m1 = 0.1084): 0.453 ± 0.061 S/m | electrical conductivity (m1 = 0.1255): 0.561 ± 0.043 S/m | electrical conductivity (m1 = 0.1264): 0.551 ± 0.042 S/m | electrical conductivity (m1 = 0.1433): 0.607 ± 0.047 S/m | electrical conductivity (m1 = 0.1458): 0.612 ± 0.048 S/m | electrical conductivity (m1 = 0.162): 0.66 ± 0.053 S/m | electrical conductivity (m1 = 0.1641): 0.665 ± 0.053 S/m | electrical conductivity (m1 = 0.1793): 0.705 ± 0.058 S/m | electrical conductivity (m1 = 0.1809): 0.713 ± 0.059 S/m | electrical conductivity (m1 = 0.1972): 0.75 ± 0.063 S/m | electrical conductivity (m1 = 0.1983): 0.762 ± 0.064 S/m | electrical conductivity (m1 = 0.2133): 0.804 ± 0.069 S/m | electrical conductivity (m1 = 0.2134): 0.787 ± 0.067 S/m | electrical conductivity (m1 = 0.2303): 0.833 ± 0.073 S/m | electrical conductivity (m1 = 0.2308): 0.838 ± 0.074 S/m | electrical conductivity (m1 = 0.2458): 0.87 ± 0.078 S/m | electrical conductivity (m1 = 0.246): 0.877 ± 0.079 S/m | electrical conductivity (m1 = 0.2615): 0.899 ± 0.081 S/m | electrical conductivity (m1 = 0.2616): 0.861 ± 0.076 S/m | electrical conductivity (m1 = 0.276): 0.893 ± 0.081 S/m | electrical conductivity (m1 = 0.2762): 0.942 ± 0.087 S/m | electrical conductivity (m1 = 0.2904): 0.926 ± 0.085 S/m | electrical conductivity (m1 = 0.2909): 0.968 ± 0.091 S/m | electrical conductivity (m1 = 0.3042): 0.957 ± 0.089 S/m | electrical conductivity (m1 = 0.3044): 0.998 ± 0.095 S/m | electrical conductivity (m1 = 0.3175): 1.01 ± 0.097 S/m | electrical conductivity (m1 = 0.3178): 1.03 ± 0.099 S/m | electrical conductivity (m1 = 0.3298): 1.04 ± 0.1 S/m | electrical conductivity (m1 = 0.3302): 1.04 ± 0.1 S/m | electrical conductivity (m1 = 0.3422): 1.07 ± 0.1 S/m | electrical conductivity (m1 = 0.3425): 1.08 ± 0.11 S/m | electrical conductivity (m1 = 0.354): 1.11 ± 0.11 S/m | electrical conductivity (m1 = 0.3542): 1.1 ± 0.11 S/m | electrical conductivity (m1 = 0.3654): 1.13 S/m and 1.12 S/m | electrical conductivity (m1 = 0.376): 1.16 ± 0.12 S/m | electrical conductivity (m1 = 0.3765): 1.15 ± 0.12 S/m | electrical conductivity (m1 = 0.3868): 1.17 ± 0.12 S/m | electrical conductivity (m1 = 0.3967): 1.19 ± 0.12 S/m | electrical conductivity (m1 = 0.4065): 1.21 ± 0.13 S/m | electrical conductivity (m1 = 0.4155): 1.24 ± 0.13 S/m | electrical conductivity (m1 = 0.4245): 1.27 ± 0.14 S/m

CCCC(=O)[O-].C[NH2+]CCO [N-methyl-2-hydroxyethylammonium butanoate] + O
electrical conductivity (m1 = 0.01443): 0.041 ± 0.005 S/m | electrical conductivity (m1 = 0.01609): 0.047 ± 0.005 S/m | electrical conductivity (m1 = 0.03059): 0.077 ± 0.006 S/m | electrical conductivity (m1 = 0.03161): 0.084 ± 0.006 S/m | electrical conductivity (m1 = 0.04718): 0.115 ± 0.008 S/m | electrical conductivity (m1 = 0.04851): 0.122 ± 0.008 S/m | electrical conductivity (m1 = 0.06311): 0.149 ± 0.009 S/m | electrical conductivity (m1 = 0.06401): 0.155 ± 0.01 S/m | electrical conductivity (m1 = 0.08077): 0.185 ± 0.012 S/m | electrical conductivity (m1 = 0.08176): 0.189 ± 0.012 S/m | electrical conductivity (m1 = 0.09698): 0.232 ± 0.015 S/m | electrical conductivity (m1 = 0.09705): 0.235 ± 0.015 S/m | electrical conductivity (m1 = 0.1139): 0.268 ± 0.017 S/m | electrical conductivity (m1 = 0.1146): 0.267 ± 0.017 S/m | electrical conductivity (m1 = 0.1298): 0.298 ± 0.019 S/m | electrical conductivity (m1 = 0.1307): 0.297 ± 0.019 S/m | electrical conductivity (m1 = 0.1464): 0.324 ± 0.021 S/m | electrical conductivity (m1 = 0.1479): 0.328 ± 0.022 S/m | electrical conductivity (m1 = 0.1614): 0.35 ± 0.023 S/m | electrical conductivity (m1 = 0.1638): 0.355 ± 0.024 S/m | electrical conductivity (m1 = 0.1771): 0.372 ± 0.026 S/m | electrical conductivity (m1 = 0.1802): 0.383 ± 0.026 S/m | electrical conductivity (m1 = 0.1918): 0.395 ± 0.027 S/m | electrical conductivity (m1 = 0.1952): 0.408 ± 0.028 S/m | electrical conductivity (m1 = 0.2064): 0.42 ± 0.029 S/m | electrical conductivity (m1 = 0.2106): 0.434 ± 0.03 S/m | electrical conductivity (m1 = 0.2201): 0.44 ± 0.031 S/m | electrical conductivity (m1 = 0.2246): 0.456 ± 0.032 S/m | electrical conductivity (m1 = 0.2336): 0.46 ± 0.033 S/m | electrical conductivity (m1 = 0.2384): 0.478 ± 0.034 S/m | electrical conductivity (m1 = 0.2466): 0.48 ± 0.034 S/m | electrical conductivity (m1 = 0.2514): 0.496 ± 0.036 S/m | electrical conductivity (m1 = 0.2596): 0.498 ± 0.036 S/m | electrical conductivity (m1 = 0.2644): 0.516 ± 0.038 S/m | electrical conductivity (m1 = 0.2712): 0.513 ± 0.038 S/m | electrical conductivity (m1 = 0.2766): 0.528 ± 0.039 S/m | electrical conductivity (m1 = 0.283): 0.525 ± 0.039 S/m | electrical conductivity (m1 = 0.2887): 0.542 ± 0.04 S/m | electrical conductivity (m1 = 0.294): 0.54 ± 0.04 S/m | electrical conductivity (m1 = 0.2998): 0.558 ± 0.042 S/m | electrical conductivity (m1 = 0.3048): 0.556 ± 0.042 S/m | electrical conductivity (m1 = 0.311): 0.572 ± 0.043 S/m | electrical conductivity (m1 = 0.3148): 0.571 ± 0.043 S/m | electrical conductivity (m1 = 0.3214): 0.586 ± 0.045 S/m | electrical conductivity (m1 = 0.3247): 0.583 ± 0.045 S/m | electrical conductivity (m1 = 0.3317): 0.6 ± 0.046 S/m | electrical conductivity (m1 = 0.334): 0.596 ± 0.046 S/m | electrical conductivity (m1 = 0.3412): 0.611 ± 0.047 S/m | electrical conductivity (m1 = 0.343): 0.607 ± 0.047 S/m | electrical conductivity (m1 = 0.3505): 0.624 ± 0.049 S/m | electrical conductivity (m1 = 0.3515): 0.619 ± 0.048 S/m | electrical conductivity (m1 = 0.3593): 0.634 ± 0.05 S/m | electrical conductivity (m1 = 0.3599): 0.629 ± 0.049 S/m | electrical conductivity (m1 = 0.3677): 0.639 ± 0.05 S/m | electrical conductivity (m1 = 0.3679): 0.646 ± 0.051 S/m | electrical conductivity (m1 = 0.3758): 0.656 ± 0.052 S/m
